From PubChem BioAssay (NCI)
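Where inhibition never reached the appropriate level, the endpoint shown equals the highest concentration tested. Otherwise, values were interpolated linearly from a five-concentration, 48-hour dose response in 96-well plates. At the GI50, growth is halved. TGI: total growth inhibition.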

Key:
Assay in all cases: NCI-60 cell line screen, 48 h
CCRF-CEM leukemia = test system: CCRF-CEM leukemia
CAKI-1 renal = test system: CAKI-1 renal
HL-60(TB) leukemia = test system: HL-60(TB) leukemia
MCF7 breast = test system: MCF7 breast
HT29 colon = test system: HT29 colon
SK-MEL-2 melanoma = test system: SK-MEL-2 melanoma
HS 578T breast = test system: HS 578T breast
SN12C renal = test system: SN12C renal
OVCAR-8 ovarian = test system: OVCAR-8 ovarian
ACHN renal = test system: ACHN renal
MDA-MB-231 breast = test system: MDA-MB-231 breast
SNB-75 CNS = test system: SNB-75 CNS
786-0 renal = test system: 786-0 renal
HCT-116 colon = test system: HCT-116 colon
COLO 205 colon = test system: COLO 205 colon
A498 renal = test system: A498 renal
HOP-62 NSCLC = test system: HOP-62 NSCLC
NCI-H460 lung = test system: NCI-H460 lung
NCI-H522 lung = test system: NCI-H522 lung
SW-620 colon = test system: SW-620 colon
DU-145 prostate = test system: DU-145 prostate
SK-MEL-28 melanoma = test system: SK-MEL-28 melanoma
SNB-19 CNS = test system: SNB-19 CNS
HOP-92 NSCLC = test system: HOP-92 NSCLC
TK-10 renal = test system: TK-10 renal
UACC-257 melanoma = test system: UACC-257 melanoma
RXF 393 renal = test system: RXF 393 renal
SF-539 CNS = test system: SF-539 CNS
LOX IMVI melanoma = test system: LOX IMVI melanoma
A549 NSCLC = test system: A549 NSCLC
HCC-2998 colon = test system: HCC-2998 colon
RPMI-8226 leukemia = test system: RPMI-8226 leukemia
IGROV1 ovarian = test system: IGROV1 ovarian
HCT-15 colon = test system: HCT-15 colon
KM12 colon = test system: KM12 colon
OVCAR-4 ovarian = test system: OVCAR-4 ovarian
SF-295 CNS = test system: SF-295 CNS
OVCAR-3 ovarian = test system: OVCAR-3 ovarian
SR leukemia = test system: SR leukemia
MDA-MB-435 = test system: MDA-MB-435
OVCAR-5 ovarian = test system: OVCAR-5 ovarian
MALME-3M melanoma = test system: MALME-3M melanoma
MOLT-4 leukemia = test system: MOLT-4 leukemia
K-562 leukemia = test system: K-562 leukemia
SK-OV-3 ovarian = test system: SK-OV-3 ovarian
SF-268 CNS = test system: SF-268 CNS
EKVX NSCLC = test system: EKVX NSCLC
UACC-62 melanoma = test system: UACC-62 melanoma
U251 CNS = test system: U251 CNS
NCI-H226 lung = test system: NCI-H226 lung
T-47D breast = test system: T-47D breast
BT-549 breast = test system: BT-549 breast
SK-MEL-5 melanoma = test system: SK-MEL-5 melanoma
PC-3 prostate = test system: PC-3 prostate
NCI-H23 lung = test system: NCI-H23 lung
UO-31 renal = test system: UO-31 renal
NCI/ADR-RES ovarian = test system: NCI/ADR-RES ovarian

SMILES: CSC1=Nc2c(c(C)c(C)n2COC(CO)CO)C2=NC(=O)CC(C)N12 (centres undefined)
- GI50 (CCRF-CEM leukemia): 16.5 µM
- TGI (CCRF-CEM leukemia): 49.5 µM
- GI50 (CAKI-1 renal): > 100 µM
- TGI (CAKI-1 renal): > 100 µM
- GI50 (HL-60(TB) leukemia): 0.0864 µM
- TGI (HL-60(TB) leukemia): > 100 µM
- GI50 (MCF7 breast): > 100 µM
- TGI (MCF7 breast): > 100 µM
- GI50 (HT29 colon): > 100 µM
- TGI (HT29 colon): > 100 µM
- GI50 (SK-MEL-2 melanoma): > 100 µM
- TGI (SK-MEL-2 melanoma): > 100 µM
- GI50 (HS 578T breast): > 100 µM
- TGI (HS 578T breast): > 100 µM
- GI50 (SN12C renal): > 100 µM
- TGI (SN12C renal): > 100 µM
- GI50 (OVCAR-8 ovarian): > 100 µM
- TGI (OVCAR-8 ovarian): > 100 µM
- GI50 (ACHN renal): > 100 µM
- TGI (ACHN renal): > 100 µM
- GI50 (MDA-MB-231 breast): > 100 µM
- TGI (MDA-MB-231 breast): > 100 µM
- GI50 (SNB-75 CNS): 30.7 µM
- TGI (SNB-75 CNS): > 100 µM
- GI50 (786-0 renal): > 100 µM
- TGI (786-0 renal): > 100 µM
- GI50 (HCT-116 colon): > 100 µM
- TGI (HCT-116 colon): > 100 µM
- GI50 (COLO 205 colon): > 100 µM
- TGI (COLO 205 colon): > 100 µM
- GI50 (A498 renal): > 100 µM
- TGI (A498 renal): > 100 µM
- GI50 (HOP-62 NSCLC): > 100 µM
- TGI (HOP-62 NSCLC): > 100 µM
- GI50 (NCI-H460 lung): > 100 µM
- TGI (NCI-H460 lung): > 100 µM
- GI50 (NCI-H522 lung): > 100 µM
- TGI (NCI-H522 lung): > 100 µM
- GI50 (SW-620 colon): > 100 µM
- TGI (SW-620 colon): > 100 µM
- GI50 (DU-145 prostate): > 100 µM
- TGI (DU-145 prostate): > 100 µM
- GI50 (SK-MEL-28 melanoma): > 100 µM
- TGI (SK-MEL-28 melanoma): > 100 µM
- GI50 (SNB-19 CNS): > 100 µM
- TGI (SNB-19 CNS): > 100 µM
- GI50 (HOP-92 NSCLC): > 100 µM
- TGI (HOP-92 NSCLC): > 100 µM
- GI50 (TK-10 renal): > 100 µM
- TGI (TK-10 renal): > 100 µM
- GI50 (UACC-257 melanoma): > 100 µM
- TGI (UACC-257 melanoma): > 100 µM
- GI50 (RXF 393 renal): > 100 µM
- TGI (RXF 393 renal): > 100 µM
- GI50 (SF-539 CNS): > 100 µM
- TGI (SF-539 CNS): > 100 µM
- GI50 (LOX IMVI melanoma): > 100 µM
- TGI (LOX IMVI melanoma): > 100 µM
- GI50 (A549 NSCLC): > 100 µM
- TGI (A549 NSCLC): > 100 µM
- GI50 (HCC-2998 colon): > 100 µM
- TGI (HCC-2998 colon): > 100 µM
- GI50 (RPMI-8226 leukemia): > 100 µM
- TGI (RPMI-8226 leukemia): > 100 µM
- GI50 (IGROV1 ovarian): > 100 µM
- TGI (IGROV1 ovarian): > 100 µM
- GI50 (HCT-15 colon): > 100 µM
- TGI (HCT-15 colon): > 100 µM
- GI50 (KM12 colon): > 100 µM
- TGI (KM12 colon): > 100 µM
- GI50 (OVCAR-4 ovarian): > 100 µM
- TGI (OVCAR-4 ovarian): > 100 µM
- GI50 (SF-295 CNS): > 100 µM
- TGI (SF-295 CNS): > 100 µM
- GI50 (OVCAR-3 ovarian): > 100 µM
- TGI (OVCAR-3 ovarian): > 100 µM
- GI50 (SR leukemia): > 100 µM
- TGI (SR leukemia): > 100 µM
- GI50 (MDA-MB-435): > 100 µM
- TGI (MDA-MB-435): > 100 µM
- GI50 (OVCAR-5 ovarian): > 100 µM
- TGI (OVCAR-5 ovarian): > 100 µM
- GI50 (MALME-3M melanoma): > 100 µM
- TGI (MALME-3M melanoma): > 100 µM
- GI50 (MOLT-4 leukemia): > 100 µM
- TGI (MOLT-4 leukemia): > 100 µM
- GI50 (K-562 leukemia): > 100 µM
- TGI (K-562 leukemia): > 100 µM
- GI50 (SK-OV-3 ovarian): > 100 µM
- TGI (SK-OV-3 ovarian): > 100 µM
- GI50 (SF-268 CNS): > 100 µM
- TGI (SF-268 CNS): > 100 µM
- GI50 (EKVX NSCLC): > 100 µM
- TGI (EKVX NSCLC): > 100 µM
- GI50 (UACC-62 melanoma): > 100 µM
- TGI (UACC-62 melanoma): > 100 µM
- GI50 (U251 CNS): > 100 µM
- TGI (U251 CNS): > 100 µM
- GI50 (NCI-H226 lung): > 100 µM
- TGI (NCI-H226 lung): > 100 µM
- GI50 (T-47D breast): > 100 µM
- TGI (T-47D breast): > 100 µM
- GI50 (BT-549 breast): > 100 µM
- TGI (BT-549 breast): > 100 µM
- GI50 (SK-MEL-5 melanoma): > 100 µM
- TGI (SK-MEL-5 melanoma): > 100 µM
- GI50 (PC-3 prostate): > 100 µM
- TGI (PC-3 prostate): > 100 µM
- GI50 (NCI-H23 lung): > 100 µM
- TGI (NCI-H23 lung): > 100 µM
- GI50 (UO-31 renal): > 100 µM
- TGI (UO-31 renal): > 100 µM
- GI50 (NCI/ADR-RES ovarian): > 100 µM
- TGI (NCI/ADR-RES ovarian): > 100 µM
